Experimental data taken from publication PMC7206119, “RIP1 inhibition blocks inflammatory diseases but not tumor growth or metastases” (Cell Death and Differentiation, 2019).

Legend:
Assay in all cases: biochemical
Parameters in all cases: Thermo Fisher SelectScreen kinase panel: Z'-LYTE and Adapta activity, LanthaScreen binding
AKT1 = AKT1 (Homo sapiens, UniProt P31749)
Method in brief: (§1)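 Single-concentration panel: 10 µM GNE684 in KINOMEscan scanMAX binding (468 kinases) and in a 221-kinase panel run as Z'-LYTE/Adapta activity or LanthaScreen binding assays.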

Abl = molecular target: T1, Abl (Homo sapiens, UniProt P00519)
T1 construct: gene ABL1
Method in brief: as §1

Aurora_B = molecular target: T2, Aurora_B (Homo sapiens, UniProt Q96GD4)
T2 construct: gene AURKB
Method in brief: as §1

DRAK1 = molecular target: T3, DRAK1 (Homo sapiens, UniProt Q9UEE5)
T3 construct: gene STK17A
Method in brief: as §1

ERBB4 = ERBB4 (Homo sapiens, UniProt Q15303)
Method in brief: as §1

FLT1 = FLT1 (Homo sapiens, UniProt P17948)
Method in brief: as §1

FLT4 = FLT4 (Homo sapiens, UniProt P35916)
Method in brief: as §1

FRK = FRK (Homo sapiens, UniProt P42685)
Method in brief: as §1

GRK3 = GRK3 (Homo sapiens, UniProt P35626)
Method in brief: as §1

GSK3_beta = molecular target: T4, GSK3_beta (Homo sapiens, UniProt P49841)
T4 construct: gene GSK3B
Method in brief: as §1

Hyl = molecular target: T5, Hyl (Homo sapiens, UniProt P42679)
T5 construct: gene MATK
Method in brief: as §1

IKK-beta = molecular target: T6, IKK-beta (Homo sapiens, UniProt O14920)
T6 construct: gene IKBKB
Method in brief: as §1

IRAK4 = IRAK4 (Homo sapiens, UniProt Q9NWZ3)
Method in brief: as §1

LCK = LCK (Homo sapiens, UniProt P06239)
Method in brief: as §1

LIMK1 = LIMK1 (Homo sapiens, UniProt P53667)
Method in brief: as §1

MAPKAPK3 = MAPKAPK3 (Homo sapiens, UniProt Q16644)
Method in brief: as §1

MARK3 = MARK3 (Homo sapiens, UniProt P27448)
Method in brief: as §1

MET = MET (Homo sapiens, UniProt P08581)
Method in brief: as §1

MLK2 = molecular target: T7, MLK2 (Homo sapiens, UniProt Q02779)
T7 construct: gene MAP3K10
Method in brief: as §1

MTOR = MTOR (Homo sapiens, UniProt P42345)
Method in brief: as §1

PKC_theta = molecular target: T8, PKC_theta (Homo sapiens, UniProt Q04759)
T8 construct: gene PRKCQ
Method in brief: as §1

PRK1 = molecular target: T9, PRK1 (Homo sapiens, UniProt Q16512)
T9 construct: gene PKN1
Method in brief: as §1

RSK2 = molecular target: T10, RSK2 (Homo sapiens, UniProt P51812)
T10 construct: gene RPS6KA3
Method in brief: as §1

T4 sequence (P49841 whole entry): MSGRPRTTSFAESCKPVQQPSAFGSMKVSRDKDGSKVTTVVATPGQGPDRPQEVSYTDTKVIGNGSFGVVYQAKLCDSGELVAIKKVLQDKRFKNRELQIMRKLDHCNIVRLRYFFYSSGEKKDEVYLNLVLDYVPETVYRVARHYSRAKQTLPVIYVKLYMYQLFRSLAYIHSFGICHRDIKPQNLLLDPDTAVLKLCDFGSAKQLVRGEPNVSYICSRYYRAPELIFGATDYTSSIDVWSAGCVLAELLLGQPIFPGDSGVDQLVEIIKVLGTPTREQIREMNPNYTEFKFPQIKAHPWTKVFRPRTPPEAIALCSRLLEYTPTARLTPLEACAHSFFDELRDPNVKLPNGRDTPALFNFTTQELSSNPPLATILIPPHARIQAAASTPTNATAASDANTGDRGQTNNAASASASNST
AKT1, sequence (P31749 whole entry): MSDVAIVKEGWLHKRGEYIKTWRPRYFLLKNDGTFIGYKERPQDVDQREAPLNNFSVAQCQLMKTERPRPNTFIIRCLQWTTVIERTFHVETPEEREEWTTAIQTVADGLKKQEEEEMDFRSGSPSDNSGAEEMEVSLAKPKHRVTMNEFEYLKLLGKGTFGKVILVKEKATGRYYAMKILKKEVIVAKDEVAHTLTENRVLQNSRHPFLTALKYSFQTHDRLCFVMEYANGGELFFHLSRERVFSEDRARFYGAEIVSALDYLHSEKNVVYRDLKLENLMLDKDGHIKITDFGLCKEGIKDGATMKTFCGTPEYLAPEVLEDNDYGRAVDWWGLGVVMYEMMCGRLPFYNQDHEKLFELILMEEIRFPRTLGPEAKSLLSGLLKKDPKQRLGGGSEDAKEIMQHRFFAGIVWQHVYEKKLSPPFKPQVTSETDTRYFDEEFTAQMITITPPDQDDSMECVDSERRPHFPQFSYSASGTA
MAPKAPK3, sequence (Q16644 whole entry): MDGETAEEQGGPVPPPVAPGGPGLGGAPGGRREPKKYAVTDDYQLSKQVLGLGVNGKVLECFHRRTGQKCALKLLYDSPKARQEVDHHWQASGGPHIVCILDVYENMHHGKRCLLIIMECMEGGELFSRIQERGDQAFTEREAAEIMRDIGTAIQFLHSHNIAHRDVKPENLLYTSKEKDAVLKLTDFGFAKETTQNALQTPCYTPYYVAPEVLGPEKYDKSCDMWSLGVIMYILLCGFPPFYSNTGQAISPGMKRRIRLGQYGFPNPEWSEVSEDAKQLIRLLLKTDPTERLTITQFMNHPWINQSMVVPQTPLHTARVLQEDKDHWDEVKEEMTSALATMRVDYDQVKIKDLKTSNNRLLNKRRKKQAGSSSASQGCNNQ
FRK, sequence (P42685 whole entry): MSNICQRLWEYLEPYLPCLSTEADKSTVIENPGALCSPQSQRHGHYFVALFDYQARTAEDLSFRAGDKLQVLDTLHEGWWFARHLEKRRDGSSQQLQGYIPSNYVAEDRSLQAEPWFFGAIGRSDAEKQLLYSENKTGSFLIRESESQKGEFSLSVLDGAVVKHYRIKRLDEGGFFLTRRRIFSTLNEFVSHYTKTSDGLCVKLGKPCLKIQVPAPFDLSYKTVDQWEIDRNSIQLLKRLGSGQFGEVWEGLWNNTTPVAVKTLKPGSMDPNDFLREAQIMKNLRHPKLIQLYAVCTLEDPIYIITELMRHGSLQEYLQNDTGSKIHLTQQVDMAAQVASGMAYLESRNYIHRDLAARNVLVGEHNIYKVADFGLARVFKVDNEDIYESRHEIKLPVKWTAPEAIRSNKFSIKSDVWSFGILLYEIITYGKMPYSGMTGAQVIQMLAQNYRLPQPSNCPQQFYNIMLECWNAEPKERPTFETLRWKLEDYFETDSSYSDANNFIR
LCK, sequence (P06239 whole entry): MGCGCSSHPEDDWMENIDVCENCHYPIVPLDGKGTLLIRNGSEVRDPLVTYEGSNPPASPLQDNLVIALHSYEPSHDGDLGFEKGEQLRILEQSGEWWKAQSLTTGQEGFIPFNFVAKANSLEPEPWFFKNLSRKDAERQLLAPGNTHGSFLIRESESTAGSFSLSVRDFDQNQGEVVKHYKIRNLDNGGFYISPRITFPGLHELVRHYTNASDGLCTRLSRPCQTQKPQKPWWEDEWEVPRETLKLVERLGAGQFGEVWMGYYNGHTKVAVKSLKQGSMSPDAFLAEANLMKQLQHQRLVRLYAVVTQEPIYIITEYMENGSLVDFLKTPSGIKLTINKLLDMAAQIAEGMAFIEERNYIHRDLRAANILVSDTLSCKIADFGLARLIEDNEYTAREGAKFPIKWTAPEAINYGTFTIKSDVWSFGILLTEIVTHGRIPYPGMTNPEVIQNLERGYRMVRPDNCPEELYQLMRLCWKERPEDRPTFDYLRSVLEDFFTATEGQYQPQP
MET, sequence (P08581 whole entry): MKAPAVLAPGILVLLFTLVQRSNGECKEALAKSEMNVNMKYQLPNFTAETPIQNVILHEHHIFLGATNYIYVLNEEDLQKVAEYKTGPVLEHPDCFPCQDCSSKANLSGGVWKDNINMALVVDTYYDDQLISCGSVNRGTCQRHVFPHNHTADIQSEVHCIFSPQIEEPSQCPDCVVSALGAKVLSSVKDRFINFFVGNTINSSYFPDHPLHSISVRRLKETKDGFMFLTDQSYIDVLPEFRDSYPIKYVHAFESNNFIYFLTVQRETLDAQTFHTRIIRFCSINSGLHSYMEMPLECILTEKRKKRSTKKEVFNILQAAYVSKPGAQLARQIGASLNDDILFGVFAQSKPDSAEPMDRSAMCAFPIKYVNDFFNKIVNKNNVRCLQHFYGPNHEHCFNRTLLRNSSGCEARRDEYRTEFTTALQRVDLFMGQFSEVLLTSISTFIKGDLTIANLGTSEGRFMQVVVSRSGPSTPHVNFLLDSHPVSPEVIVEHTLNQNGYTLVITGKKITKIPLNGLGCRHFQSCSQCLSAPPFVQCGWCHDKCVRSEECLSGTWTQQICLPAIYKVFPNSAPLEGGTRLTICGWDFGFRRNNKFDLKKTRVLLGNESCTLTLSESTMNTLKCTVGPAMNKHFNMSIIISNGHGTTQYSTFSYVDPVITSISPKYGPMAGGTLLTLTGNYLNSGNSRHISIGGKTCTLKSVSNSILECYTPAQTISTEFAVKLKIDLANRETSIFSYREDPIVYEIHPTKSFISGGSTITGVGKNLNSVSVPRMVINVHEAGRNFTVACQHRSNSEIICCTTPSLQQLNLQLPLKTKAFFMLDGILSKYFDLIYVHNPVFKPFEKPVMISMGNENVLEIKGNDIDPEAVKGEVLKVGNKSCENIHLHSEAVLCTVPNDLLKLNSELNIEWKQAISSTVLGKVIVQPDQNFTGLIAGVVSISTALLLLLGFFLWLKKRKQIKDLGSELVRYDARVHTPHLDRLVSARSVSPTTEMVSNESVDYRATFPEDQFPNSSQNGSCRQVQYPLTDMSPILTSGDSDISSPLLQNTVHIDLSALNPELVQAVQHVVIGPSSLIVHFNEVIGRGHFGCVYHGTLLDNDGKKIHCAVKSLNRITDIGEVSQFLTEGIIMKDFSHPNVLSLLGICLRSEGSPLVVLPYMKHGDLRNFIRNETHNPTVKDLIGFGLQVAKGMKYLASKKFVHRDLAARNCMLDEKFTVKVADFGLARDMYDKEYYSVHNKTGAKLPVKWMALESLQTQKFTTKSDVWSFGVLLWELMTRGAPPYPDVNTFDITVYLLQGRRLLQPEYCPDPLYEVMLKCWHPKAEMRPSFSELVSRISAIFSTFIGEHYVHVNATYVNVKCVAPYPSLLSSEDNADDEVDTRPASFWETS
LIMK1, sequence (P53667 whole entry): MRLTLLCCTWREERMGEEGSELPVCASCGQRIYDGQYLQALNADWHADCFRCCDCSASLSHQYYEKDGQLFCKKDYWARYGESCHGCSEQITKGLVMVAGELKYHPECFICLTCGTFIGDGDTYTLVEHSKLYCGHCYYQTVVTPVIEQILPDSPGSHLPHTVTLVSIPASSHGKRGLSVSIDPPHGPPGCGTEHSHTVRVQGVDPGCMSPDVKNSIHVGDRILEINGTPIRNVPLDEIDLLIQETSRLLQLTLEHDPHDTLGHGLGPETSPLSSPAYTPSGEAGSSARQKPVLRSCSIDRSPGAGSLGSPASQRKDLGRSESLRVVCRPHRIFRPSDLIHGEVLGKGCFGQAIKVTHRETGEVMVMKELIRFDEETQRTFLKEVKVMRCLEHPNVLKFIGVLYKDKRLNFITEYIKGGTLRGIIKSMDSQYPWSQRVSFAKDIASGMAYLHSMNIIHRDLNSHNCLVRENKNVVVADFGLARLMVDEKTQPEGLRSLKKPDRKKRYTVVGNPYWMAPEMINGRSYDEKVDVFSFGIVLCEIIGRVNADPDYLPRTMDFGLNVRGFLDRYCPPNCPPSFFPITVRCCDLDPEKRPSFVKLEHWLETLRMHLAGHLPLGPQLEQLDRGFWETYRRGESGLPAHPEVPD
T5 sequence (P42679 whole entry): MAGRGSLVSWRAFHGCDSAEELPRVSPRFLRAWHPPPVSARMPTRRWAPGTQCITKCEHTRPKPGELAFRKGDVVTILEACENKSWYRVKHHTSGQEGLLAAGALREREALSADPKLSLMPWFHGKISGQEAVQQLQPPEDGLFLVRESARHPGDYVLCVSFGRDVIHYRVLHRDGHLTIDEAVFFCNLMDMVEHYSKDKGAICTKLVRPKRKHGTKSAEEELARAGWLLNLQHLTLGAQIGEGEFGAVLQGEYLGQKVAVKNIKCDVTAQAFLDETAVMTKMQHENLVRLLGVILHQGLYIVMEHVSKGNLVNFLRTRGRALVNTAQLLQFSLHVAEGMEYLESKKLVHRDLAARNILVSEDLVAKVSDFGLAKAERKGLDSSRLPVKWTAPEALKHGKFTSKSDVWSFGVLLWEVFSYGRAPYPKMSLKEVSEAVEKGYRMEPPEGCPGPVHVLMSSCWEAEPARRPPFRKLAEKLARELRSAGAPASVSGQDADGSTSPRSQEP

In the case of COc1cc2c(cn1)N(C)C(=O)[C@@H](NC(=O)c1nc3n(n1)[C@H](c1ccccc1)CC3)CC2 [GNE684, (S)-N-((S)-7-methoxy-1-methyl-2-oxo-2,3,4,5-tetrahydro-1H-pyrido[3,4-b]azepin-3-yl)-5-phenyl-6,7-dihydro-5H-pyrrolo[1,2-b][1,2,4]triazole-2-carboxamide], the inhibition at 10 µM (AKT1) is reported as 2.5%, the inhibition at 10 µM (Abl) is reported as 2% and the inhibition at 10 µM (Aurora_B) is reported as 6.5%. For the same molecule, the inhibition at 10 µM (DRAK1) was 0.5%, the inhibition at 10 µM (ERBB4) was 4% and the inhibition at 10 µM (FLT1) was 3.5%. It also gave an inhibition at 10 µM (FLT4) of 14%, an inhibition at 10 µM (FRK) of 4.5% and an inhibition at 10 µM (GRK3) of 2.5%. The inhibition at 10 µM (GSK3_beta) was 5%, the inhibition at 10 µM (Hyl) was 1% and the inhibition at 10 µM (IKK-beta) was 8.5%. It also gave an inhibition at 10 µM (IRAK4) of 5%, an inhibition at 10 µM (LCK) of 5% and an inhibition at 10 µM (LIMK1) of 8.5%. The inhibition at 10 µM (MAPKAPK3) was 3%, the inhibition at 10 µM (MARK3) was -2.5% and the inhibition at 10 µM (MET) was -2%. The inhibition at 10 µM (MLK2) was 0%, the inhibition at 10 µM (MTOR) was 2% and the inhibition at 10 µM (PKC_theta) was -5%. It also gave an inhibition at 10 µM (PRK1) of 2.5% and an inhibition at 10 µM (RSK2) of 4%.
